Test results from patent US12065443B2, “Compounds and pharmaceutical compositions thereof for the treatment of diseases” (priority 2017, dated 2024).
Where two headings read alike, the source gives them in different places.

What was measured:
SIK3 [1] = molecular target: T1, SIK3 (Homo sapiens, UniProt Q9Y2K2); experiment: biochemical; conditions: ADP-Glo SIK kinase assay
T1 construct: purchased SignalChem S12-11G-100
Experimental: (§1) The ADP-Glo™ kinase assay is a luminescent technology assay which measures the ADP formed from a kinase reaction. […] In a second step the kinase reactions are terminated and all the remaining ATP is depleted. In a final step the ADP is converted into ATP and this newly synthesized ATP is measured by using a luciferase/luciferin reaction. The generated light is measured using an Envision plate reader, wherein the luminescent signal obtained positively correlates with the kinase activity.
(§2) 1% DMSO and 10 μM staurosporine final concentrations are used as negative and positive controls.
(§3) 2 μL enzyme-substrate mixture is added to the assay plates.
(§4) The reaction is started by adding 2 μL diluted ATP on the assay plates. Plates are centrifuged for a few seconds at 1000 rpm and gently shaken for 2 min followed by an incubation at RT for 120 min.
(§5) The reactions are stopped and the unconsumed ATP is depleted by adding 5 μL ADP-Glo Reagent (Promega, Cat #V912B) to the reaction. The plates are centrifuged for a few seconds at 1000 rpm and incubated at RT for 40 min (ATP depletion).
(§6) The ADP is converted to ATP and luciferase and luciferin is introduced to detect ATP by adding 10 μL Kinase Detection Reagent (Promega, Cat #V913B+V914B) to the reaction. The plates are centrifuged for a few seconds at 1000 rpm and incubated at RT for 30 min (ADP detection).
(§7) Luminescence is measured on an Envision plate reader (PerkinElmer Inc.).

SIK2 [2] = molecular target: T2, SIK2 (Homo sapiens, UniProt Q9H0K1); experiment: biochemical; conditions: ADP-Glo SIK kinase assay
T2 construct: purchased ThermoFisher Scientific PV4792
T2 sequence (Q9H0K1 whole entry): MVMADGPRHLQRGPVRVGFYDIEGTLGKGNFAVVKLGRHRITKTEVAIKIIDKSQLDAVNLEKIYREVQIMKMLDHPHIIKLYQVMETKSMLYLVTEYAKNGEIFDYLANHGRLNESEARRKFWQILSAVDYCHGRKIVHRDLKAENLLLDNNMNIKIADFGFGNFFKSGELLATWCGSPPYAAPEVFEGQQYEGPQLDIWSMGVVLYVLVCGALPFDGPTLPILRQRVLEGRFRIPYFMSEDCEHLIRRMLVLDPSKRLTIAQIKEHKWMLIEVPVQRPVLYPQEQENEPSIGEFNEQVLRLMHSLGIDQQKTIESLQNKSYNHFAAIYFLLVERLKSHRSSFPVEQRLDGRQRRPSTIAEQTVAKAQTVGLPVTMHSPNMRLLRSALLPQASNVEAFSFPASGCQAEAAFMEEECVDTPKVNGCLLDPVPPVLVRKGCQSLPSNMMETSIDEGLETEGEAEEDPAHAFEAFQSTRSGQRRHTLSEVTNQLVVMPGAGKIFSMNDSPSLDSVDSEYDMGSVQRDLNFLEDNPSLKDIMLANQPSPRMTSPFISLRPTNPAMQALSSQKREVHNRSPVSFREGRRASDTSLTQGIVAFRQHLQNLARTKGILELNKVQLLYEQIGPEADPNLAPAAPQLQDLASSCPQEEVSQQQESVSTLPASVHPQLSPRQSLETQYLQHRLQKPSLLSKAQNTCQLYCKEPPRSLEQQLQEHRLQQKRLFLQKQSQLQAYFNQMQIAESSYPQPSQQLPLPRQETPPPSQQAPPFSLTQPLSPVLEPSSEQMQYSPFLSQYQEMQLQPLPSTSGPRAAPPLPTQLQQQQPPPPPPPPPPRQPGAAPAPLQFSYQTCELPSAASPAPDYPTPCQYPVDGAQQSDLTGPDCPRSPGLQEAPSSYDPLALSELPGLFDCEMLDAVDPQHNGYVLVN
Experimental: as §1, §2, §3, §4, §5, §6, §7

SIK1 [3] = molecular target: T3, SIK1 (Homo sapiens, UniProt P57059); experiment: biochemical; conditions: ADP-Glo SIK kinase assay
T3 construct: purchased Carna Biosciences 02-131
T3 sequence (P57059 whole entry): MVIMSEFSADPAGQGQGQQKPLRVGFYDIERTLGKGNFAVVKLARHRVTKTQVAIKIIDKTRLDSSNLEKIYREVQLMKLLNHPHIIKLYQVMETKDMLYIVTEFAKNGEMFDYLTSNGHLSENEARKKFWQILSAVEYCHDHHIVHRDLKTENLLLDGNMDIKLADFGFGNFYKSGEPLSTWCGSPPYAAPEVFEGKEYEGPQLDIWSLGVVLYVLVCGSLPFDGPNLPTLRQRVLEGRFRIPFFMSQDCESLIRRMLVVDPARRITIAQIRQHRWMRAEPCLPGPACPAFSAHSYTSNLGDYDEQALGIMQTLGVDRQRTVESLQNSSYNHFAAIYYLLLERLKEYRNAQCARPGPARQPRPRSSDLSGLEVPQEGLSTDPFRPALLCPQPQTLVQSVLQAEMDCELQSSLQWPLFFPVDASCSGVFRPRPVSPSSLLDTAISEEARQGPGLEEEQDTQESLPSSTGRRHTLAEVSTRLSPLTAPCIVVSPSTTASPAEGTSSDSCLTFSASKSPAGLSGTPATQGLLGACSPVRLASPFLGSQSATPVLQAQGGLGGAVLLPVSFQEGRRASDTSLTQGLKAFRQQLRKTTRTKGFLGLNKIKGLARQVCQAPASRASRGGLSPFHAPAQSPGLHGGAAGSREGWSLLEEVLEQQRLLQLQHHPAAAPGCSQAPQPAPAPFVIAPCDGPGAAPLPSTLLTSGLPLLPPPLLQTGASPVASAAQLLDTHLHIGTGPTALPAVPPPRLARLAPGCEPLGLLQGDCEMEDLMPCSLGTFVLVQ
Experimental: as §1, §2, §3, §4, §5, §6, §7

[4] = tested on: LPS-induced TNFα secretion in monocyte-derived macrophages (MdM); experiment: MdM assay: LPS-triggered TNFα (ELISA); format: cell-based, human; conditions: Homo sapiens, Macrophage, LPS-triggered TNFα inhibition
Method in brief: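 TNFα ELISA read on supernatants harvested 20 h after LPS (final 200 ng/mL) stimulation. Cells were day-10 macrophages derived from human blood CD14+ monocytes, exposed to 3-fold compound dilutions for 1 h at 37 °C beforehand, with DMSO held at 0.2%.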

SIK3 [5] = molecular target: T1, SIK3; experiment: biochemical
Method in brief: (§8)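 AMARA peptide phosphorylation by SIK1–3 is quantified through ^33P uptake from a labeled/unlabeled ATP blend. Staurosporine at 10 μM final defines full inhibition, 1% DMSO the uninhibited signal. Quench uses phosphoric acid; counting follows filter capture.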

SIK2 [6] = molecular target: T2, SIK2; experiment: biochemical; conditions: 33P radioactive SIK kinase assay, AMARA peptide, 10 μM ATP
Method in brief: as §8

SIK1 [7] = molecular target: T3, SIK1; experiment: biochemical; conditions: 33P radioactive SIK kinase assay, AMARA peptide, 10 μM ATP; read-out: SIK1 IC50
Method in brief: as §8

T1 sequence (Q9Y2K2 whole entry): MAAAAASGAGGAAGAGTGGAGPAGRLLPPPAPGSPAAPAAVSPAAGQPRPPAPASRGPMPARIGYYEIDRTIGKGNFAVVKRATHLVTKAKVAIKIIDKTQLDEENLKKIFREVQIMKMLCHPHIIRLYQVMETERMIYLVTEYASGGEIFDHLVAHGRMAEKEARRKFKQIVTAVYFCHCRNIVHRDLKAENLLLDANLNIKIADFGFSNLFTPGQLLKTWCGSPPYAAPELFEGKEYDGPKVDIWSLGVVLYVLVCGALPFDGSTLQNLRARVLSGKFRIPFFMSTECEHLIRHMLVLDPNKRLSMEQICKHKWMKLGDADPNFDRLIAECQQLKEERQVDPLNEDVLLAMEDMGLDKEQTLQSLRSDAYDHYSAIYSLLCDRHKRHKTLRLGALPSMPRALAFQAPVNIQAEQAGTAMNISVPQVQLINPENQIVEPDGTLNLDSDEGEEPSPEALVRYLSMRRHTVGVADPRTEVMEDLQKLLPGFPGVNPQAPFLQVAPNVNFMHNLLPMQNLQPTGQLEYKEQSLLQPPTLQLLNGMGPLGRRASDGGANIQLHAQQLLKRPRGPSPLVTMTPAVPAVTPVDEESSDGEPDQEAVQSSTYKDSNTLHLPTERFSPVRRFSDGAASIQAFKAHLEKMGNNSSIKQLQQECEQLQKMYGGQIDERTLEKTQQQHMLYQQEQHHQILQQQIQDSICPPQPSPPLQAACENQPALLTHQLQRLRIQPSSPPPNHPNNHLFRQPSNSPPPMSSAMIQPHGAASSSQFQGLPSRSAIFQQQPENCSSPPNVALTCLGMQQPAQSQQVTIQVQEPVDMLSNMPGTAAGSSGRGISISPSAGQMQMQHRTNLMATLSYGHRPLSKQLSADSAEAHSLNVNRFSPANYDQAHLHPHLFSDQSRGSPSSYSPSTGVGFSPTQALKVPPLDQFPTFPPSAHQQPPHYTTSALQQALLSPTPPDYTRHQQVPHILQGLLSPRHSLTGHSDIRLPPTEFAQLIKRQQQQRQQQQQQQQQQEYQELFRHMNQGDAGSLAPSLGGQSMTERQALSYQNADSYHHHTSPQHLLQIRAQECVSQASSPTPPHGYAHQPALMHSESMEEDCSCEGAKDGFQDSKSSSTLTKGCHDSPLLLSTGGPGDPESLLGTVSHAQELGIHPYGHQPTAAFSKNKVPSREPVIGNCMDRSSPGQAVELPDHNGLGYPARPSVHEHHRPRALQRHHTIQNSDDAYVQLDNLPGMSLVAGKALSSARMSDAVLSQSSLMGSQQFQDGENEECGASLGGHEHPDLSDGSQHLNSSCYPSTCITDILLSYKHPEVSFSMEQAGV

Row | Structure (SMILES) | IC50 (SIK3 [1]) | IC50 (SIK2 [2]) | IC50 (SIK1 [3]) | EC50 [4] | IC50 (SIK3 [5]) | IC50 (SIK2 [6]) | IC50 (SIK1 [7])
1 | COc1cc(-c2cnc3cc(-c4ccc(C5CC5)nn4)ccn23)cc(OC(F)F)c1C(=O)NC1CC1 [compound 285, N-cyclopropyl-4-[7-(6-cyclopropyl-pyridazin-3-yl)imidazo[1,2-a]pyridin-3-yl]-2-(difluoromethoxy)-6-methoxy-benzamide] | 0.01 to 10 nM | 0.01 to 10 nM | 0.01 to 10 nM | 0.1 to 100 nM |  |  | 
2 | COc1cc(-c2cnc3cc(-c4cnn(C)c4)ccn23)cc(OC)c1C(=O)N1CC(C(F)(F)F)C1 [compound 213, [2,6-dimethoxy-4-[7-(1-methylpvrazol-4-yl)imidazo[1,2-a]pyridin-3-yl]phenyl]-[3-(trifluoromethyl)azetidin-1-yl]methanone] | 0.01 to 10 nM | 0.01 to 10 nM | 0.01 to 10 nM | 0.1 to 100 nM | 0.01 to 10 nM | 0.01 to 10 nM | 0.01 to 10 nM
3 | COc1cc(-c2cnc3cc(-c4cnn(CC(=O)OCC5CCCO5)c4)ccn23)cc(OC)c1C(=O)NCC(F)(F)F (stereo not shown) [Cpd 297, tetrahydrofuran-2-ylmethyl 2-[4-[3-[3,5-dimethoxy-4-(2,2,2-trifluoro-ethylcarbamoyl)phenyl]imidazo[1,2-a]pyridin-7-yl]pyrazol-1-yl]acetate] | 0.01 to 10 nM | 0.01 to 10 nM | 0.01 to 10 nM | 100 to 1000 nM |  |  | 
4 | COc1cc(-c2cnc3cc(-c4cnn(C)c4)c(OCC(=O)O)cn23)cc(OC(F)F)c1C(=O)NC1CC1 [Cpd 299, 2-[3-[4-(cyclopropyl-carbamoyl)-3-(difluoromethoxy)-5-methoxy-phenyl]-7-(1-melhylpyrazol-4-yl)imidazo[1,2-a]pyridin-6-yl]oxyacetic acid] | 10 to 100 nM | 0.01 to 10 nM | 10 to 100 nM | > 5000 nM |  |  | 
5 | CCOC(=O)C(Cn1cc(-c2ccn3c(-c4cc(OC)c(C(=O)NCC(F)(F)F)c(OC)c4)cnc3c2)cn1)C(C)C (stereo not shown) [Cpd 294] | 0.01 to 10 nM | 0.01 to 10 nM | 0.01 to 10 nM | 0.1 to 100 nM |  |  | 
6 | COc1cc(-c2cnc3cc(-c4cnn(C)c4)ccn23)cc(F)c1C(=O)NC1CC1 [Cpd 276, N-cyclopropyl-2-fluoro-6-methoxy-4-[7-(1-methylpyrazol-4-yl)imidazo[1,2-a]pyridin-3-yl]benzamide] | 0.01 to 10 nM | 0.01 to 10 nM | 10 to 100 nM | 0.1 to 100 nM |  |  | 
7 | CCOC(=O)C(C)(C)n1cc(-c2ccn3c(-c4cc(OC)c(C(=O)NCC(F)(F)F)c(OC)c4)cnc3c2)cn1 [Cpd 295, ethyl 2-[4-[3-[3,5-dimethoxy-4-(2,2,2-trifluoroethyl-carbamoyl)phenyl]imidazo[1,2-a]pyridin-7-yl]pyrazol-1-yl]-2-methyl-propanoate] | 0.01 to 10 nM | 0.01 to 10 nM | 0.01 to 10 nM | 0.1 to 100 nM |  |  | 
8 | CCOC(=O)C(C(C)C)n1cc(-c2ccn3c(-c4cc(OC)c(C(=O)NCC(F)(F)F)c(OC)c4)cnc3c2)cn1 (stereo not shown) [Cpd 296, ethyl 2-[4-(3-[3,5-dimethoxy-4-(2,2,2-trifluoro-ethylcarbamoyl)phenyl]imidazo[1,2-a]pyridin-7-yl]pyrazol-1-yl]-3-methyl-butanoate] | 0.01 to 10 nM | 0.01 to 10 nM | 0.01 to 10 nM | 0.1 to 100 nM |  |  | 
9 | COCCOc1cc(-c2cnc3cc(-c4cnn(C)c4)ccn23)cc(OC)c1C(=O)NC1CC1 [Cpd 278, N-cyclopropyl-2-methoxy-6-(2-methoxyethoxy)-4-[7-(1-methylpyrazol-4-yl)imidazo[1,2-a]pyridin-3-yl]benzamide] | 0.01 to 10 nM | 0.01 to 10 nM | 10 to 100 nM | 100 to 1000 nM |  |  | 
10 | COc1cc(-c2cnc3cc(-c4cncn4C)ccn23)cc(OC(F)F)c1C(=O)NC1CC1 [compound 274, N-cyclopropyl-2-(difluoromethoxy)-6-methoxy-4-[7-(3-methylimidazol-4-yl)imidazo[1,2-a]pyridin-3-yl]benzamide] | 0.01 to 10 nM | 0.01 to 10 nM | 10 to 100 nM | 100 to 1000 nM |  |  | 
